Common to all, as to assay type: biochemical
Test [1] addresses T1, endothiapepsin (Cryphonectria parasitica, UniProt P11838).
T1 construct: gene EAPA; mature active enzyme, monomer
Nature of the test: fluorescence-based protease assay adapted from HIV protease assay; crystal soaking. The source says: fluorescence-based protease assay adapted from HIV protease assay; crystal soaking on endothiapepsin

In test [2] the target is T1, endothiapepsin. Nature of the test: fluorescence-based protease assay adapted from HIV protease assay; Ki presumably from IC50 (Cheng-Prusoff). The source says: fluorescence-based protease assay adapted from HIV protease assay; Ki presumably from IC50 (Cheng-Prusoff) on endothiapepsin
In test [3] the target is T1, endothiapepsin. Nature of the test: fluorescence-based protease assay adapted from HIV protease assay. From the text:
fluorescence-based protease assay adapted from HIV protease assay on endothiapepsin

SMILES strings stand for the structures.

T1 sequence (P11838 90-419): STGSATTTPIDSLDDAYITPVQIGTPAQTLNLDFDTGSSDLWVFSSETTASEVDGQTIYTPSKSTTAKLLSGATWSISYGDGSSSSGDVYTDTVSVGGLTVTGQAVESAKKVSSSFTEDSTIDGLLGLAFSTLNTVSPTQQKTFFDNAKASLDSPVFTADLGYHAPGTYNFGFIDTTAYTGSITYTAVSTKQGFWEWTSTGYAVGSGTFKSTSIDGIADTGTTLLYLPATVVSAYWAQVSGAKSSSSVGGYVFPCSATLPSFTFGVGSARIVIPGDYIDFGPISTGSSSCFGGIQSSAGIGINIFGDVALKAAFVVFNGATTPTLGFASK

Broadly, the IC50 is the concentration that gives 50% inhibition. A high value points to weaker potency. The Ki is a measure of affinity in units of concentration, obtained from inhibition or displacement. Higher therefore signals weaker binding. With `N[C@@H](Cc1c[nH]c2ccccc12)C(=O)N/N=C/c1cccc(/C=N/NC(=O)[C@@H](N)Cc2c[nH]c3ccccc23)c1` [compound 13, bis-acylhydrazone 13], at endothiapepsin [1], the concentration for half-maximal inhibition (IC50) stood at 54 ± 0.5 nM. The compound further showed a Ki at endothiapepsin [2] of 25.4 ± 0.2 nM.

At endothiapepsin [3], `N[C@@H](Cc1ccccc1)C(=O)N/N=C/c1cccc(/C=N/NC(=O)[C@@H](N)Cc2ccccc2)c1` [compound 16, bis-acylhydrazone 16] displayed an IC50 of 2100 ± 100 nM. Also, the Ki on endothiapepsin [2] was 980 ± 50 nM.

Values taken from PMC5113778, “Fragment Linking and Optimization of Inhibitors of the Aspartic Protease Endothiapepsin: Fragment‐Based Drug Design Facilitated by Dynamic Combinatorial Chemistry” (Angewandte Chemie (International Ed. in English), 2016).
